Reference: article PMC10666548, “Identification of the bacterial metabolite aerugine as potential trigger of human dopaminergic neurodegeneration” (Environment international, 2023)
“Also recorded” adds a separate entry of the source. Where two headings read alike, the source gives them in different places.

Experiments:
[1] = Cytotoxicity to mature (d6) LUHMES neurons, calcein-AM & H-33342 high content imaging; assay type: cell-based, human; details: human, mature LUHMES d6, 24 h exposure; read-out: EC50 (half-maximal cytotoxic potency), cell viability
Experimental: (§1) For toxicity assessment of mature LUHMES neurons, precursor cells were pre-differentiated for 2 days in cell culture flasks pre-coated as described above and differentiation medium. Then, 45′000 cells per well were seeded in differentiation medium into standard 96-well plates pre-coated as described above. They were incubated at 37 °C and 5% CO2 for 4 days before compound treatment. At this time, cells were >99% post-mitotic and had established an extensive neurite network ([Scholz et al., 2011]) The cell viability was assessed via the Calcein/Hoechst readout, the LDH assay and the resazurin reduction assay.
(§2) Neurite area (NA) and viability (V) were assessed as described previously ([Stiegler et al., 2011]). In brief, cells were stained with 1 μM calcein-AM and 1 μg/ml H-33342 for 30 min at 37 °C and 5% CO2. Image acquisition was performed using an Array-Scan VTI HCS Reader (Cellomics, PA, USA) equipped with a Hamamatsu ORCA-ER camera. 10 fields per well were imaged with 2 channels at 20x magnification (2×2 pixel binning). Excitation/emission wavelengths of 365 ± 50/535 ± 45 nm were used for Hoechst detection in channel 1 and 474 ± 40/535 ± 45 nm were used for calcein detection in channel 2.
(§3) Nuclei were identified in channel 1 depending on intensity, area, size and shape. Their outlines were expanded by 3.2 μm to define a virtual cell soma area (VCSA), which was bigger than the average cell soma to prevent false positive NAs. All calcein-positive pixels were defined as viable cellular structures (VCSs). The NA was automatically calculated by excluding the VCSAs from the VCSs. Furthermore all nuclei co-localizing with VCSs were defined as alive.

[2] = test system: human dopaminergic neurons (LUHMES cells); assay: as above; assay type: cell-based; details: for EC50: mature LUHMES d6, 24 h exposure, read-out: EC50 (half-maximal cytotoxic potency), cell viability
Experimental: as §1, §2, §3

[3] = test system: LUHMES neurons; assay: Time course of cell death in d6 LUHMES (phase contrast, TMRE, H-33342, propidium iodide); assay type: cell-based, human; details: 10 μM
Experimental: Cells were stained either with 50 nM tetramethylrhodamine ethyl ester (TMRE) or 1.5 μM propidium iodide (PI) for at least 30 min at 37 °C and 5% CO2 ([Brüll et al., 2020]; [Krug et al., 2014]). Fluorescent imaging was performed (AxioObserver, Zeiss, Germany) with excitation/emission wavelengths of 575 ± 25/640 ± 35 nm.
To obtain additional information on the death process triggered by aerugine, we also examined earlier time points after exposure to a fixed concentration of 10 μM. Semi-quantitative information was obtained from phase contrast images, by staining of energized mitochondria with the potential-sensitive dye tetramethylrhodamine ethyl ester (TMRE) and by visualization of the chromatin structure with the […] dye H-33342. […] While the neurite structure was well-preserved, some of the cell bodies flattened in a way that the nucleus became visible in phase contrast. The normally round/dome-like cells took a flattened “fried egg” structure. In parallel, the DNA condensed and fragmented into small, round and highly-fluorescent spheres, a typical hallmark of apoptosis. Cells with apoptotic nuclei had lost their TMRE stain. At 8 h, more cell bodies looked flattened (“unhealthy”) and the neurites were thinning. […] This sequence of events is typical of neuronal apoptosis, e.g. under mild excitotoxic conditions, or after exposure to proteasome inhibitors or cytoskeletal poisons ([Gutbier et al., 2018b]; [Leist et al., 1997]; [Volbracht et al., 2001]; [Volbracht et al., 1999]). The overall kinetics of cell death was rather fast, compared to many other toxicants. […] To obtain a more quantitative confirmation of the rapid process, cells were stained with calcein-acetoxymethyl ester and propidium iodide (PI) and observed over time. The staining of nuclei (indication of plasma membrane permeability) by PI was quantified by an imaging algorithm. By 6 h, dead cells increased by 17 ± 6%, by 8 h by 25 ± 5%, and by 10 h, > 95% of the cell nuclei were positive. This confirms the fast cell death process triggered by aerugine (10 μM) in neurons.

[4] = test system: dopaminergic system of C. elegans BY200; assay: Basal slowing response (BSR) behavioral assay; assay type: in vivo, Caenorhabditis elegans; details: L4 BY200 worms treated 2 days
Experimental: The basal slowing response (BSR) is a behavioral assay that assesses the functionality of the worms’ DAergic system. For this, worms were washed three times with S-basal buffer (100 mM NaCl, 5 mg/L cholesterol, 50 mM potassium phosphate buffer, pH 6.0) to remove residual bacteria, and placed on the center of a 60-mm NGM plates in the absence or presence of an OP50 bacteria ring. After habituation (5 min), the number of body bends of each worm was counted during 20 s to determine its immobility rate. The results were expressed as the difference (Δ) between the number of body bends in the absence (a) and presence (p) of bacteria on fresh plates (Δ = a-p). […]
Fig. 5. […] They were exposed to different aerugine concentrations and counted every 24 h. […] Differences on a given day were analyzed by ANOVA and found to be non-significant. […] The GFP-labelled neurons of 20–30 worms per condition were analyzed and scored for specific neurodegeneration. […] These scores were assessed to quantify the dopaminergic neurodegeneration caused be aerugine in vivo. C Worms with wild type morphology (score 0) were counted. […] D The degeneration scores exemplified in B were quantified. […] E The “basal slowing response” was assessed as proxy for the functionality of the worms’ dopaminergic system. It was measured in L4 larval stage BY200 worms treated for 2 days with aerugine. […]

SMILES: OCC1CSC(c2ccccc2O)=N1 (centres unmarked) [aerugine, 2-[4-(hydroxymethyl)-4,5-dihydro-1,3-thiazol-2-yl]phenol]
- EC50 at 24 h [1]: 4.1 ± 0.8 µM
- cytotoxicity to DAergic neurons (viability) ([2]; d6 LUHMES, 24 h (24 h and 48 h for purified compounds)): cytotoxic to DAergic neurons in a time- and concentration-dependent manner
- effect on neurite area ([2]; d6 LUHMES, 24 h assay setup): affected neurites to the same extent and at similar concentrations as cell bodies
- cytotoxic potency range ([2]; d6 LUHMES, purified compound): low μM range
- EC50 ([2]; listed as Aerugine): 3 to 4 µM
- EC50 [2]: 3.1 ± 0.7 µM
- increase of aerugine sensitivity by neuronal maturity state ([2]; mature vs proliferating LUHMES): approximately three-fold
- morphology (phase contrast, TMRE, H-33342) ([3]; 6 h exposure): clear morphological changes became obvious
- mitochondrial membrane potential in intact neurites (TMRE) ([3]; 8 h): the mitochondrial membrane potential was lost
- morphology (neurites, nuclei) ([3]; 10 h): the majority of neurites was lost
- increase of dead cells (PI-stained nuclei) ([3]; by 6 h): 17 ± 6%
- increase of dead cells (PI-stained nuclei) ([3]; by 8 h): 25 ± 5%
- PI-positive cell nuclei ([3]; by 10 h): > 95%
- basal slowing response (BSR) [4]: attenuated; also recorded: exerted functional dopaminergic toxicity
